Measured values reported in paper PMC9214608 (RSC Advances, 2022).

Molecular target: SARS-CoV-2 main protease (M^pro or 3CL^pro) (Severe acute respiratory syndrome coronavirus 2, UniProt P0DTD1)
Experiment: biochemical
Details: In vitro SARS-COV-2 M^pro IC50
In the case of `C=C(C)C(C=C[C@@H](C)[C@H]1CC[C@H]2[C@@H]3CC=C4CC(O)CC[C@]4(C)[C@H]3CC[C@]12C)CC` (stereo partly drawn) [Compound 1, 24-β-ethyl-cholesta-5(6),22(23),25(26)-triene-3-ol], the IC50 is reported as 12.5 ± 0.64 µM.

Same assay, conditions: In vitro SARS-COV-2 M^pro IC50, FRET-based assay; mean ± SD
`C[C@H]1[C@H](C)CC[C@]2(C)CC[C@]3(C)C(=CC[C@@H]4[C@@]5(C)CC[C@H](O)C(C)(C)[C@@H]5CC[C@]43C)[C@H]12` [Compound 2, α-amyrin] gave an IC50 of 4.18 ± 0.21 µM.
In the case of `O=c1cc(-c2ccc(O)c(O)c2)oc2c([C@@H]3O[C@H](CO)[C@@H](O)[C@H](O)[C@H]3O)c(O)cc(O)c12` [Compound 16, orientin], the IC50 is reported as 27.5 ± 1.4 µM.
`CCCCC/C=C\C/C=C\CCCCCCCC(=O)O` [Compound 3, linoleic acid] gave an IC50 of 20.7 ± 1.05 µM.
In the case of `COc1c(O)cc2c(c1O)C(=O)CC(c1cc(O)cc(O)c1)O2` (stereo not drawn) [Compound 13, 3′,5′,5,7-tetrahydroxy-6-methoxyflavanone], the IC50 is reported as 5.56 ± 0.28 µM.
In the case of `COc1cc(C2CC(=O)c3c(O)cc(O)c(OC)c3O2)ccc1O` (stereo not drawn) [Compound 8, 5,7,4′-trihydroxy-8,3′-dimethoxy flavanone], the IC50 is reported as 27.9 ± 1.42 µM.
With `COc1cc(-c2cc(=O)c3c(O)cc(O)c(OC)c3o2)cc(OC)c1OC` [Compound 11, 5,7-dihydroxy-3′,4′,5′,8-tetramethoxy flavone] the IC50 was 5.07 ± 0.26 µM.
`Cc1cccc(C)c1OCC(=O)N[C@@H](Cc1ccccc1)[C@@H](O)C[C@H](Cc1ccccc1)NC(=O)[C@H](C(C)C)N1CCCNC1=O` [Lopinavir, reference compound] showed an IC50 of 0.225 ± 0.01 µM.
With `COc1cc(-c2cc(=O)c3c(O)cc(OC)c(OC)c3o2)ccc1O` [Compound 10, 4′,5-dihydroxy-3′,7,8-trimethoxyflavone] the IC50 was 12.8 ± 0.65 µM.
For `COc1c(O)cc2c(c1O)C(=O)CC(c1ccc(O)cc1)O2` (stereo not drawn) [Compound 9, 5,7,4′-trihydroxy-6-methoxy flavanone], the IC50 was 11.8 ± 0.6 µM.

Same assay, conditions: read-out: In vitro SARS-COV-2 M^pro IC50
Compound `O=c1cc(-c2ccc(O)c(O[C@@H]3O[C@H](CO)[C@@H](O)[C@H](O)[C@H]3O)c2)oc2cc(O)cc(O)c12` [Compound 17, luteolin-3′-O-β-D-glucoside] has an IC50 of 10.1 ± 0.52 µM.

Test system: MERS-CoV 3CL^pro
Experiment: not given
Details: cited from earlier work
For `COc1cc(O)cc(O)c1C(=O)/C=C/c1ccc(O)cc1` [Helichrysetin], the “Inhibition of MERS-CoV 3CL^pro” value is listed as “able to inhibit MERS-CoV 3CL^pro”.
